Measured values as given in EP4596574A1, “GLP-1/GCG/GIP TRIPLE-RECEPTOR AGONIST AND USE THEREOF” (Sunshine Lake Pharma Co., Ltd., priority 2022, dated 2024).
Marks after values point to notes of the source that are not given here.

Key:
GLP-1R = biological target: T1, GLP-1R (Homo sapiens, UniProt P43220); assay: In vitro cell activity, cAMP production in HEK293 cells expressing GLP-1R; format: cell-based
T1 construct: expressed in transfected cells; host or cells: HEK293 (HEK293-GLP-1R)
Method in brief: (§1)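 cAMP output read as 665/620 nm HTRF ratio after adding cAMP-d2 plus anti-cAMP cryptate and incubating 1 h at room temperature in the dark or overnight at 4 °C. Cells: HEK293 expressing human GLP-1R or GCGR, plated from a 4×10^5 cells/mL suspension. Four-parameter fit gives EC50.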

[1] = Glucose tolerance assessment in normal C57BL/6 mice (Example 4); format: in vivo; conditions: for Blood glucose level (mM) 15 min / Blood glucose level (mM) 30 min / Blood glucose level (mM) 60 min / Blood glucose level (mM) 90 min / Blood glucose level (mM) 0 min / AUC0-90 min: 3 nmol/kg s.c. single dose, 24 h after administration; for Blood glucose level (mM) 15 min: 15 min after 2 g/kg glucose i.p.; for Blood glucose level (mM) 30 min: 30 min after 2 g/kg glucose i.p.; for Blood glucose level (mM) 60 min: 60 min after 2 g/kg glucose i.p.; for Blood glucose level (mM) 90 min: 90 min after 2 g/kg glucose i.p.; for Blood glucose level (mM) 0 min: basal before 2 g/kg glucose i.p.; for improvement of glucose tolerance compared with LY3298176: 24 hours after a single administration, 3 nmol/kg; for AUC0-90 min: blood glucose AUC, 2 g/kg glucose i.p.
Experimental: Twelve hours after the single administration, the animals were fasted for 12 hours and had free access to water. Blood was collected from the tail vein to determine the basal blood glucose level of each group of animals, and then 2 g/kg glucose solution was injected intraperitoneally. Blood glucose was tested at 15, 30, 60, and 90 min after glucose administration. The blood glucose concentration-time curve was drawn according to the blood glucose values measured at different time points, and the AUC0~90min of each dose group was calculated as shown in Table 4 and Figure 1. Table 4: Effects of single administration of HEC-PT74, HEC-PT75, HEC-PT77, HEC-PT78, HEC-PT80, and HEC-PT82 on glucose tolerance in normal C57 mice 24 h after administration

GIPR = biological target: T2, GIPR (Homo sapiens, UniProt P48546); assay: In vitro cell activity, cAMP production in HEK293 cells expressing GIPR; format: cell-based
T2 construct: expressed in transfected cells; host or cells: HEK293 (HEK293-GIPR)
T2 sequence (P48546 22-466): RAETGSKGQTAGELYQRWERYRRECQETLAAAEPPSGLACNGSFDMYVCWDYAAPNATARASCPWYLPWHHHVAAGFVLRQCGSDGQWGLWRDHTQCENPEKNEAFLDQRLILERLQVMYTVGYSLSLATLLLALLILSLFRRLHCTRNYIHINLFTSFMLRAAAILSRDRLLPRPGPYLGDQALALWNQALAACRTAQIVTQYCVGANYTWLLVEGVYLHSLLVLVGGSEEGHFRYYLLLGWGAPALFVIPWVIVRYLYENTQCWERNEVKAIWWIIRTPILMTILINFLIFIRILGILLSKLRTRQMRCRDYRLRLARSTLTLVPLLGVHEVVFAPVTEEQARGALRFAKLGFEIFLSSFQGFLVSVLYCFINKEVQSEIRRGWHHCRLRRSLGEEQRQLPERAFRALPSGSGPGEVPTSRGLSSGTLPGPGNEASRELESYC
Method in brief: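 HEK293 cells expressing human GIPR, thawed and diluted to 4×10^5 cells/mL, are stimulated with test compound. cAMP is measured by HTRF competition between cAMP-d2 and anti-cAMP cryptate. EC50 comes from a four-parameter nonlinear fit of signal ratio against concentration.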

GCGR = biological target: T3, GCGR (Homo sapiens, UniProt P47871); assay: In vitro cell activity, cAMP production in HEK293 cells expressing GCGR; format: cell-based
T3 construct: expressed in transfected cells; host or cells: HEK293 (HEK293-GCGR)
Method in brief: as §1

[2] = In vivo efficacy evaluation in db/db mouse model (blood glucose); design: species or system db/db mice
Experimental: Blood glucose was tested before each administration.

T3 sequence (P47871 26-477, species assumed): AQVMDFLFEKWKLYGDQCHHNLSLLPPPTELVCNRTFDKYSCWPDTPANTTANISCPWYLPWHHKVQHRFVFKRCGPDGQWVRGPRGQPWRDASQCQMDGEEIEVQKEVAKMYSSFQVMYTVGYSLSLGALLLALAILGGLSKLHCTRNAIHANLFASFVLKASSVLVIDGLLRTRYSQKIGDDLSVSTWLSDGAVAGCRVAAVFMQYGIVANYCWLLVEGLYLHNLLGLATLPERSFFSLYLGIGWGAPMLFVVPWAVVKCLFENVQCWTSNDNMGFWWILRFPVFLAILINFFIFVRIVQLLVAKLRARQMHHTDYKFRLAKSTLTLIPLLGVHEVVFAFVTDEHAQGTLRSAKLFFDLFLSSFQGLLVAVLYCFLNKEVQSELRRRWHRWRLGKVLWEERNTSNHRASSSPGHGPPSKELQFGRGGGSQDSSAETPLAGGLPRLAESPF
T1 sequence (P43220 24-463, species assumed): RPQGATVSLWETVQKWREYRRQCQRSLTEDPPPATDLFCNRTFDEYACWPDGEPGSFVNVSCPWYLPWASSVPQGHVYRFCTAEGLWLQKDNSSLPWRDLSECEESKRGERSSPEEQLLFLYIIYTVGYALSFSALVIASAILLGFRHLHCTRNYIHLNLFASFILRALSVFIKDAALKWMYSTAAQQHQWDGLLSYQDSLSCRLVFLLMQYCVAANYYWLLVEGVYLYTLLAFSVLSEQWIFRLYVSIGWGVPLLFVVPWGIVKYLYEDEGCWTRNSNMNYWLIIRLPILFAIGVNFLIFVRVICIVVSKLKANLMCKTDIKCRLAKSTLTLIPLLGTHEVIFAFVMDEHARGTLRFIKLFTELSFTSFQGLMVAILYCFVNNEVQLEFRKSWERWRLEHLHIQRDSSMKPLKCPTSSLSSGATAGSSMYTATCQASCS

Structure (SMILES) | EC50 (GLP-1R) | Blood glucose level (mM) 15 min [1] | Blood glucose level (mM) 30 min [1] | Blood glucose level (mM) 60 min [1] | Blood glucose level (mM) 90 min [1] | Blood glucose level (mM) 0 min [1] | improvement of glucose tolerance compared with LY3298176 [1] | AUC0-90 min [1] | EC50 (GIPR) | EC50 (GCGR) | also measured
CC[C@H](C)[C@H](NC(=O)[C@H](Cc1ccccc1)NC(=O)[C@H](CCC(=O)O)NC(=O)[C@H](CCC(N)=O)NC(=O)[C@H](CCC(N)=O)NC(=O)[C@H](C)NC(=O)[C@H](CCCCNC(=O)COCCOCCNC(=O)CC[C@H](NC(=O)CCCCCCCCCCCCCCCCC(=O)O)C(=O)O)NC(=O)[C@H](CCC(=O)O)NC(=O)[C@H](CC(=O)O)NC(=O)[C@H](CC(C)C)NC(=O)[C@H](CC(C)C)NC(=O)[C@@H](NC(=O)[C@H](CO)NC(=O)[C@H](Cc1ccc(O)cc1)NC(=O)[C@H](CC(=O)O)NC(=O)[C@H](CO)NC(=O)[C@@H](NC(=O)[C@](C)(Cc1ccccc1F)NC(=O)[C@@H](NC(=O)CNC(=O)[C@H](Cc1c[nH]cn1)NC(=O)C(C)(C)NC(=O)[C@@H](N)Cc1ccc(O)cc1)[C@@H](C)O)[C@@H](C)O)[C@@H](C)CC)C(=O)N[C@@H](CCC(=O)O)C(=O)N[C@@H](Cc1c[nH]c2ccccc12)C(=O)N[C@@H](CC(C)C)C(=O)N[C@@H](CC(C)C)C(=O)N[C@@H](C)C(=O)NCC(=O)NCC(=O)N1CCC[C@H]1C(=O)N[C@@H](CO)C(=O)N[C@@H](CO)C(=O)NCC(=O)N[C@@H](C)C(=O)N1CCC[C@H]1C(=O)N1CCC[C@H]1C(=O)N1CCC[C@H]1C(=O)N[C@@H](CO)C(=O)O [HEC-PT80] | 0.341 nM | 11.1 ± 2.0 mM | 9.3 ± 1.7 mM | 7.2 ± 1.0 mM | 5.5 ± 0.5 mM | 4.6 ± 1.1 mM | more effective in improving glucose tolerance than the positive control LY3298176 | 707.6±98.4^a | 0.0506 nM | 1.27 nM | –
CC[C@H](C)[C@H](NC(=O)[C@H](Cc1ccccc1)NC(=O)[C@H](C)NC(=O)[C@H](CCCNC(=N)N)NC(=O)[C@H](CCC(N)=O)NC(=O)[C@H](C)NC(=O)[C@H](CCCCNC(=O)COCCOCCNC(=O)CC[C@H](NC(=O)CCCCCCCCCCCCCCCCCCC(=O)O)C(=O)O)NC(=O)[C@H](CCC(=O)O)NC(=O)[C@H](CC(=O)O)NC(=O)[C@H](CC(C)C)NC(=O)[C@H](CC(C)C)NC(=O)[C@@H](NC(=O)[C@H](CO)NC(=O)[C@H](Cc1ccc(O)cc1)NC(=O)[C@H](CC(=O)O)NC(=O)[C@H](CO)NC(=O)[C@@H](NC(=O)[C@](C)(Cc1ccccc1F)NC(=O)[C@@H](NC(=O)CNC(=O)[C@H](CCC(N)=O)NC(=O)C(C)(C)NC(=O)[C@@H](N)Cc1ccc(O)cc1)[C@@H](C)O)[C@@H](C)O)[C@@H](C)CC)C(=O)N[C@@H](CCC(=O)O)C(=O)N[C@@H](Cc1ccc(O)cc1)C(=O)N[C@@H](CC(C)C)C(=O)N[C@@H](CC(C)C)C(=O)N[C@@H](CCC(=O)O)C(=O)NCC(=O)NCC(=O)N1CCC[C@H]1C(=O)N[C@@H](CO)C(=O)N[C@@H](CO)C(=O)NCC(=O)N[C@@H](C)C(=O)N1CCC[C@H]1C(=O)N1CCC[C@H]1C(=O)N1CCC[C@H]1C(=O)N[C@@H](CO)C(=O)O [HEC-PT85] | 0.255 nM | – | – | – | – | – | – | – | 0.237 nM | 0.602 nM | blood glucose after administration ([2]; db/db mice, 10 nmol/kg): significantly reduce blood glucose; Random blood glucose (mM) D0 ([2]; db/db mice, 10 nmol/kg s.c. once every three days, D0 (before first dose)): 26.2 ± 2.8 mM; Random blood glucose (mM) D3 ([2]; db/db mice, 10 nmol/kg s.c. once every three days, D3): 11.8 ± 3.6 mM; Random blood glucose (mM) D4 ([2]; db/db mice, 10 nmol/kg s.c. once every three days, D4): 17.6 ± 3.1 mM; Random blood glucose (mM) D5 ([2]; db/db mice, 10 nmol/kg s.c. once every three days, D5): 20.2 ± 5.5 mM; Random blood glucose (mM) D6 ([2]; db/db mice, 10 nmol/kg s.c. once every three days, D6): 17.3 ± 3.4 mM; Random blood glucose (mM) D7 ([2]; db/db mice, 10 nmol/kg s.c. once every three days, D7): 21.3 ± 3.5 mM; Random blood glucose (mM) D10 ([2]; db/db mice, 10 nmol/kg s.c. once every three days, D10): 11.8 ± 3.8 mM; Random blood glucose (mM) D13 ([2]; db/db mice, 10 nmol/kg s.c. once every three days, D13): 14.7 ± 4.9 mM; Random blood glucose (mM) D16 ([2]; db/db mice, 10 nmol/kg s.c. once every three days, D16): 12.8 ± 3.9 mM; Random blood glucose (mM) D19 ([2]; db/db mice, 10 nmol/kg s.c. once every three days, D19): 13.7 ± 2.5 mM; Random blood glucose (mM) D22 ([2]; db/db mice, 10 nmol/kg s.c. once every three days, D22): 17.2 ± 4.2 mM; Random blood glucose (mM) D25 ([2]; db/db mice, 10 nmol/kg s.c. once every three days, D25): 15.7±4.5^a mM; Random blood glucose (mM) 6 h ([2]; db/db mice, 10 nmol/kg s.c., 6 h): 15.3 ± 5.4 mM; Random blood glucose (mM) 24 h ([2]; db/db mice, 10 nmol/kg s.c., 24 h): 10.1 ± 3.7 mM; Random blood glucose (mM) 48 h ([2]; db/db mice, 10 nmol/kg s.c., 48 h): 12.9 ± 4.2 mM; time at which blood glucose levels reached the lowest level ([2]; db/db mice, 10 nmol/kg, after administration): about 24 hours; blood glucose lowering after long-term administration compared with LY3298176 ([2]; db/db mice, long-term repeated administration): not inferior to the positive control LY3298176; blood glucose reducing effect after administration compared with LY3298176 ([2]; db/db mice, same dose 10 nmol/kg): slightly better than the positive control LY3298176; blood glucose level after long-term administration ([2]; type II diabetes model db/db mice): significantly improve the blood glucose level
CC[C@H](C)[C@H](NC(=O)[C@H](Cc1ccccc1)NC(=O)[C@H](C)NC(=O)[C@H](CCCNC(=N)N)NC(=O)[C@H](CCC(N)=O)NC(=O)[C@H](C)NC(=O)[C@H](CCCCNC(=O)COCCOCCNC(=O)CC[C@H](NC(=O)CCCCCCCCCCCCCCCCC(=O)O)C(=O)O)NC(=O)[C@H](CCC(=O)O)NC(=O)[C@H](CC(=O)O)NC(=O)[C@H](CC(C)C)NC(=O)[C@H](CC(C)C)NC(=O)[C@@H](NC(=O)[C@H](CO)NC(=O)[C@H](Cc1ccc(O)cc1)NC(=O)[C@H](CC(=O)O)NC(=O)[C@H](CO)NC(=O)[C@@H](NC(=O)[C@](C)(Cc1ccccc1F)NC(=O)[C@@H](NC(=O)CNC(=O)[C@H](Cc1c[nH]cn1)NC(=O)C(C)(C)NC(=O)[C@@H](N)Cc1ccc(O)cc1)[C@@H](C)O)[C@@H](C)O)[C@@H](C)CC)C(=O)N[C@@H](CCC(=O)O)C(=O)N[C@@H](Cc1ccc(O)cc1)C(=O)N[C@@H](CC(C)C)C(=O)N[C@@H](CC(C)C)C(=O)N[C@@H](C)C(=O)NCC(=O)NCC(=O)N1CCC[C@H]1C(=O)N[C@@H](CO)C(=O)N[C@@H](CO)C(=O)NCC(=O)N[C@@H](C)C(=O)N1CCC[C@H]1C(=O)N1CCC[C@H]1C(=O)N1CCC[C@H]1C(=O)N[C@@H](CO)C(=O)O [HEC-PT75] | 0.108 nM | 11.1 ± 3.1 mM | 8.9 ± 3.1 mM | 7.4 ± 2.0 mM | 5.6 ± 0.7 mM | 4.0 ± 0.4 mM | more effective in improving glucose tolerance than the positive control LY3298176 | 682.0±166.7^a | 0.0377 nM | 0.0672 nM | –
